Test results taken from US20140228287A1, “1-[(3-CYANO-PYRIDIN-2-YL)METHYL]-3-METHYL-7-(2-BUTYN-1-YL)-8-[3-(R)-AMINO-PIPERIDIN-1-YL]-AXANTHINE FOR THE TREATMENT OF A METABOLIC DISORDER OF A PREDOMINANTLY CARNIVOROUS NON-HUMAN ANIMAL” (BOEHRINGER INGELHEIM VETMEDICA GMBH, priority 2010, published 2014).
Where a name gives a salt, the structure may show the parent alone. Read-outs that look alike come from different tables or passages of the source.

Columns and labels:
plasma DPP IV = molecular target: T1, plasma DPP IV (Homo sapiens, UniProt P27487); assay: Inhibition of plasma DPP IV activity in vitro, human plasma; type: biochemical
T1 construct: from tissue; host or cells: human plasma
T1 sequence (P27487 39-766 limits assumed): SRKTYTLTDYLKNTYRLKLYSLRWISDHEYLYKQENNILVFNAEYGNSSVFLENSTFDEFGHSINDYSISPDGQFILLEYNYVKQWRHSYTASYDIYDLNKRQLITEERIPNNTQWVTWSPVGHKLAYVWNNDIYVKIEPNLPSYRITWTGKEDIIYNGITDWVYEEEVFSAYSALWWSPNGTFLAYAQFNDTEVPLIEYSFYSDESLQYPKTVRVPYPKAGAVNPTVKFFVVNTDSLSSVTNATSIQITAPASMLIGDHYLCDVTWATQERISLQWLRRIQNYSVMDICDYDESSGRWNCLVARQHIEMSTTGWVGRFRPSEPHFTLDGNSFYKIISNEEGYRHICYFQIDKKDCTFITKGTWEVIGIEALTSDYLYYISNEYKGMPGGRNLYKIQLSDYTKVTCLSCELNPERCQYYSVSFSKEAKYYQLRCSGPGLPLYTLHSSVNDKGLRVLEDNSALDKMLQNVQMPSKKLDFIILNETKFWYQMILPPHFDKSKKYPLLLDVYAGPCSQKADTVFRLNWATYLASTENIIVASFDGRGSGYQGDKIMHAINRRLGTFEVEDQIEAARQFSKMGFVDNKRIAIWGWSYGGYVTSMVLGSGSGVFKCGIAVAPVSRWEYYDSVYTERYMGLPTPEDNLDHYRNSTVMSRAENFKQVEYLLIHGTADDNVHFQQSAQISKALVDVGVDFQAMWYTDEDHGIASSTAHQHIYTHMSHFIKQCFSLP
Procedure: Studies were also conducted to assess the inhibitory effect of this compound on plasma DPP IV activity in several species.

[1] = molecular target: Prolyl-Oligo Peptidase (or Prolyl Endopeptidase) (Homo sapiens, UniProt P48147); assay: In vitro selectivity, human proteases: Prolyl-Oligo Peptidase; type: biochemical; settings: up to 100 μM
Prolyl-Oligo Peptidase (or Prolyl Endopeptidase), sequence (P48147 whole entry): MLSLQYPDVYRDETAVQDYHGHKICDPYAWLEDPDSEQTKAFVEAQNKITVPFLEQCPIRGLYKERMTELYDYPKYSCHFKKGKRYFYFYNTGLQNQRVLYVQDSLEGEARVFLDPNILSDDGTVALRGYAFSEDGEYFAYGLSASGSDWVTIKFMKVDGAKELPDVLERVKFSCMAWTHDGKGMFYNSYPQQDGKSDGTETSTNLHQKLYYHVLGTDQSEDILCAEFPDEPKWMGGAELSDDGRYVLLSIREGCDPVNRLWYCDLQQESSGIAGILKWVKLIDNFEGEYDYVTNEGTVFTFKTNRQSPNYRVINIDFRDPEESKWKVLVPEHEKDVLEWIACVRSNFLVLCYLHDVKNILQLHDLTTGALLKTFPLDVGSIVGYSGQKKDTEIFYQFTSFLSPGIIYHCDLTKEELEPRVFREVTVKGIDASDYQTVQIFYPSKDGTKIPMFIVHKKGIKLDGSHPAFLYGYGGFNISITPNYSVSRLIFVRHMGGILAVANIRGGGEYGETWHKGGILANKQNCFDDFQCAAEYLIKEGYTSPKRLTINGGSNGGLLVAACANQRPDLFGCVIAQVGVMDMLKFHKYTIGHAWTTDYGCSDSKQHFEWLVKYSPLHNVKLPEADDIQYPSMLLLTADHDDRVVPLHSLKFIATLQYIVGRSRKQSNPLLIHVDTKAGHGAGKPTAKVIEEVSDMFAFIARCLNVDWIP
Text: (§1) In order to determine the in vitro selectivity of 1-[(3-cyano-pyridin-2-yl)methyl]-3-methyl-7-(2-butyn-1-yl)-8-[3-(R)-amino-piperidin-1-yl]-xanthine, the ability of this compound to inhibit a number of human proteases was investigated as described in Thomas et al. (2008), J. Pharmacol. Exp. Ther., vol. 325, p. 175-182, chapter In vitro DPP-4 Inhibition Assay, p. 176.

DPP 9 = DPP 9 (Homo sapiens, UniProt Q86TI2); assay: In vitro selectivity, human proteases: DPP 9; type: biochemical
DPP 9, sequence (Q86TI2 whole entry): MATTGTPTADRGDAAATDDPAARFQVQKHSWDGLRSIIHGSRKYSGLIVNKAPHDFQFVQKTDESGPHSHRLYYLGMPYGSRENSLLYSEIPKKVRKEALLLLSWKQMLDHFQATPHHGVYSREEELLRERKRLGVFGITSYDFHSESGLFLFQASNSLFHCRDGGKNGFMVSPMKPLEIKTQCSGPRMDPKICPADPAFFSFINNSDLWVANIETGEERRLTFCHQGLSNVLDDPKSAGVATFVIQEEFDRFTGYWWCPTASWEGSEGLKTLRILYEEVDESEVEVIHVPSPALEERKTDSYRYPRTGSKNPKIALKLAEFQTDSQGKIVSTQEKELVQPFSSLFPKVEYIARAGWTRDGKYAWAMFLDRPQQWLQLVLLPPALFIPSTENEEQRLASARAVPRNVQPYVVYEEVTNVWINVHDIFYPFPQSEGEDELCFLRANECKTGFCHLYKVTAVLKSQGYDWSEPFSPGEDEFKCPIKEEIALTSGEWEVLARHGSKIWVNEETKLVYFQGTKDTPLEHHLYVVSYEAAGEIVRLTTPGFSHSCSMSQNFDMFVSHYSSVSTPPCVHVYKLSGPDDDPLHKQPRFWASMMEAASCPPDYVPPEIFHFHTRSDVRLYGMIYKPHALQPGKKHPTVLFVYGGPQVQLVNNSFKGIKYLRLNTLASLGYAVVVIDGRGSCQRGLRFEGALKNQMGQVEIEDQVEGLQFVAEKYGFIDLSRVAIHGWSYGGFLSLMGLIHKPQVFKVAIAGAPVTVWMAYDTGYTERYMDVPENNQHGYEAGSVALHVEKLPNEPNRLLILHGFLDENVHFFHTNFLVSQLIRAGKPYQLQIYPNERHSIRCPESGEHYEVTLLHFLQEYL
Text: as §1

[2] = Exploratory single dose PK/PD (1.0/5.0/10.0 mg/kg) in cats: pharmacokinetics; type: in vivo; settings: cat; for AUC(0-inf) / Cmax / MRT / Tmax / half-life: male, domestic short hair, plasma, free base by LC-MS/MS; for half-life: read-out: T1/2, mean (converted)
Procedure: The aim of this study was to investigate the PK/PD behaviour of 1-[(3-cyano-pyridin-2-yl)methyl]-3-methyl-7-(2-butyn-1-yl)-8-[3-(R)-amino-piperidin-1-yl]-xanthine in the cat following a single oral administration of 0, 1, 5 and 10 mg/kg body weight (dosages were based on the free base: 1 mg 1-[(3-cyano-pyridin-2-yl)methyl]-3-methyl-7-(2-butyn-1-yl)-8-[3-(R)-amino-piperidin-1-yl]-xanthine monohydrochloride corresponds to 0.923 mg 1-[(3-cyano-pyridin-2-yl)methyl]-3-methyl-7-(2-butyn-1-yl)-8-[3-(R)-amino-piperidin-1-yl]-xanthine free base).
(§2) Twelve clinically healthy male adult domestic short hair cats with a body weight range of 3.5-4.7 kg were used in this study. All animals were treated orally once via a stomach tube. Blood samples for pharmacokinetic and pharmacodynamic (DPP IV activity) investigations were drawn at 0 h (i.e. prior to treatment), 30 min as well as 1, 2, 4, 8, 8.5, 9, 12, 24, 36, 48, 72, 84 and 96 h after treatment. Blood samples for pharmacodynamic (glucagon-like peptide 1 concentrations) investigations were drawn at −16 (i.e. prior to feeding), −15.5, −15 h as well as at 8 h (i.e. prior to feeding), 8.5 and 9 h after treatment.
PK data for 1-[(3-cyano-pyridin-2-yl)methyl]-3-methyl-7-(2-butyn-1-yl)-8-[3-(R)-amino-piperidin-1-yl]-xanthine free base were determined with a validated LC-MS/MS method and are summarized in Table 6.

GLP-1 [3] = assay: OGTT in normal cats after 9 mg per cat: GLP-1 concentrations; type: in vivo; settings: for GLP-1 concentration: 9 mg/cat oral, OGTT beginning 1 h after
Procedure: Cats were fasted overnight and then lightly tranquilized with tiletamine/zolazepam (2 mg per cat intravenously (Fort Dodge Animal Health, Ft. Dodge, Iowa, USA). Glucose was administered via gastric tube (2 g/kg body weight; 80% w/v) after a baseline blood sample had been obtained. […]
Glucose measurements were performed using a colorimetric glucose oxidase method (DCL, Oxford, Conn., USA). Plasma insulin was measured as described in Hoenig et al. (1989), J. Endocrinol., vol. 121, p. 249-251. The concentrations of active GLP-1 were measured with an ELISA kit from Linco (St. Charles, Mo., USA). All samples were tested in duplicate. […] The interassay coefficient of variation (CV) was 7.6%, and the intra-assay CV was 12.1%.
An OGTT like in Example 11 was performed in […] beginning 1 h after oral administration of 9 mg 1-[(3-cyano-pyridin-2-yl)methyl]-3-methyl-7-(2-butyn-1-yl)-8-[3-(R)-amino-piperidin-1-yl]-xanthine monohydrochloride or placebo (2 groups with 6 animals each; 3 male and 3 females per group).

GLP-1 [4] = assay: Single dose study (1.0/5.0/10.0 mg/kg) in cats: GLP-1 after feeding; type: in vivo, cat; settings: single oral 1, 5, 10 mg/kg; feeding at 8 h after treatment
Procedure: as §2

Q: With CC#CCn1c(N2CCC[C@@H](N)C2)nc2c1c(=O)n(Cc1ncccc1C#N)c(=O)n2C [1-[(3-cyano-pyridin-2-yl)methyl]-3-methyl-7-(2-butyn-1-yl)-8-[3-(R)-amino-piperidin-1-yl]-xanthine monohydrochloride] as the molecule, how does the IC50 (plasma DPP IV) read?
A: ~0.6 nM

Q: And the “inhibitory effect on Prolyl-Oligo Peptidase” value [1]?
A: did not exert any inhibitory effect

Q: What about the IC50 (DPP 9) of the same molecule?
A: > 10000 nM

Q: What about the half live ([2]; single oral 1.0, 5.0, 10.0 mg/kg) of the same molecule?
A: over 25 hours

Q: And the AUC(0-inf) ([2]; 1.0 mg/kg single oral)?
A: 1.14 µM·h

Q: What about the Cmax ([2]; 1.0 mg/kg single oral) of the same molecule?
A: 175 nM

Q: And the MRT ([2]; 1.0 mg/kg single oral)?
A: 12.3 h

Q: What about the Tmax ([2]; 1.0 mg/kg single oral) of the same molecule?
A: 1.33 h

Q: And the half-life ([2]; 1.0 mg/kg single oral)?
A: 25.4 h

Q: What about the AUC(0-inf) ([2]; 5.0 mg/kg single oral) of the same molecule?
A: 5.48 µM·h

Q: What about the Cmax ([2]; 5.0 mg/kg single oral) of the same molecule?
A: 931 nM

Q: What about the MRT ([2]; 5.0 mg/kg single oral) of the same molecule?
A: 6.76 h

Q: What about the Tmax ([2]; 5.0 mg/kg single oral) of the same molecule?
A: 1.83 h

Q: And the half-life ([2]; 5.0 mg/kg single oral)?
A: 28.8 h

Q: What about the AUC(0-inf) ([2]; 10 mg/kg single oral) of the same molecule?
A: 26.3 µM·h

Q: And the Cmax ([2]; 10 mg/kg single oral)?
A: 5470 nM

Q: And the MRT ([2]; 10 mg/kg single oral)?
A: 5.73 h

Q: What about the Tmax ([2]; 10 mg/kg single oral) of the same molecule?
A: 1.33 h

Q: What about the half-life ([2]; 10 mg/kg single oral) of the same molecule?
A: 37.6 h

Q: What about the “GLP-1 increase compared to Placebo” value (GLP-1 [3]; 9 mg per cat oral, OGTT in normal cats) of the same molecule?
A: significantly higher compared to Placebo

Q: And the GLP-1 concentration (GLP-1 [3]; 60 min after drug administration)?
A: 3.70 pmol/L

Q: What about the GLP-1 concentration (GLP-1 [3]; 65 min after drug administration) of the same molecule?
A: 3.92 pmol/L

Q: And the GLP-1 concentration (GLP-1 [3]; 70 min after drug administration)?
A: 4.54 pmol/L

Q: What about the GLP-1 concentration (GLP-1 [3]; 75 min after drug administration) of the same molecule?
A: 7.28 pmol/L

Q: What about the GLP-1 concentration (GLP-1 [3]; 90 min after drug administration) of the same molecule?
A: 16.31 pmol/L

Q: What about the GLP-1 concentration (GLP-1 [3]; 120 min after drug administration) of the same molecule?
A: 26.93 pmol/L

Q: What about the GLP-1 concentration (GLP-1 [3]; 180 min after drug administration) of the same molecule?
A: 23.25 pmol/L

Q: And the GLP-1 concentration (GLP-1 [3]; 240 min after drug administration)?
A: 14.45 pmol/L

Q: And the GLP-1 concentration (GLP-1 [3]; 300 min after drug administration)?
A: 9.60 pmol/L

Q: What about the GLP-1 concentration (GLP-1 [3]; 360 min after drug administration) of the same molecule?
A: 6.04 pmol/L

Q: What about the “mean GLP-1 concentration after feeding” value (GLP-1 [4]) of the same molecule?
A: an increase of the mean GLP-1 concentration was observed after feeding
